According to paper PMC5218480 (PLoS ONE, 2017):

Tested on: MV-4-11 cells
Experiment: Gene expression microarray analysis (Affymetrix PrimeView) and GSEA
Format: cell-based, human
Set-up: RFU PODN (11730768_x_at) / Fold change /veh PODN (11730768_x_at) / RFU LINC00158 (11744669_a_at) / Fold change /veh LINC00158 (11744669_a_at) / RFU DUSP10 (11751237_a_at) / Fold change /veh DUSP10 (11751237_a_at) / RFU ID3 (11757404_x_at) / Fold change /veh ID3 (11757404_x_at) / RFU PLEKHG5 (11737974_s_at) / Fold change /veh PLEKHG5 (11737974_s_at) / RFU LRRC4B (11730491_at) / Fold change /veh LRRC4B (11730491_at) / RFU GIMAP4 (11747438_a_at) / Fold change /veh GIMAP4 (11747438_a_at) / RFU KRT8 (11758183_x_at) / Fold change /veh KRT8 (11758183_x_at) / RFU CNN1 (11734310_a_at) / Fold change /veh CNN1 (11734310_a_at) / RFU VPS37D (11726825_at) / Fold change /veh VPS37D (11726825_at) / RFU C10orf10 (11716522_x_at) / Fold change /veh C10orf10 (11716522_x_at) / RFU KIR2DL2 /// KIR2DL4 /// KIR2DL5A /// KIR2DL5B /// KIR2DS1 /// KIR2DS2 /// KIR2DS3 /// KIR2DS4 /// KIR3DL3 /// KIR3DL3 /// KIR3DS1 (11738374_at) / Fold change /veh KIR2DL2 /// KIR2DL4 /// KIR2DL5A /// KIR2DL5B /// KIR2DS1 /// KIR2DS2 /// KIR2DS3 /// KIR2DS4 /// KIR3DL3 /// KIR3DL3 /// KIR3DS1 (11738374_at) / RFU C1QL1 (11718748_at) / Fold change /veh C1QL1 (11718748_at) / RFU TMPRSS4 (11747572_a_at) / Fold change /veh TMPRSS4 (11747572_a_at) / RFU HAMP (11756126_x_at) / Fold change /veh HAMP (11756126_x_at) / RFU RNFT2 (11725882_a_at) / Fold change /veh RNFT2 (11725882_a_at) / RFU NR4A2 (11747474_a_at) / Fold change /veh NR4A2 (11747474_a_at) / RFU ABCC12 (11746883_a_at) / Fold change /veh ABCC12 (11746883_a_at) / RFU TMEM136 (11760407_x_at) / Fold change /veh TMEM136 (11760407_x_at) / RFU CLDN22 /// WWC2 (11732394_at) / Fold change /veh CLDN22 /// WWC2 (11732394_at) / RFU HLA-DPB1 (11760878_x_at) / Fold change /veh HLA-DPB1 (11760878_x_at) / RFU SPINT1 (11716480_a_at) / Fold change /veh SPINT1 (11716480_a_at) / RFU GAP43 (11754022_s_at) / Fold change /veh GAP43 (11754022_s_at) / RFU A4GNT (11735810_at) / Fold change /veh A4GNT (11735810_at) / RFU PRB3 (11715151_x_at) / Fold change /veh PRB3 (11715151_x_at) / RFU TUBB4B (11761932_at) / Fold change /veh TUBB4B (11761932_at) / RFU CAPN14 (11732068_a_at) / Fold change /veh CAPN14 (11732068_a_at) / RFU TMCC2 (11721928_a_at) / Fold change /veh TMCC2 (11721928_a_at) / RFU IRGQ (11745062_a_at) / Fold change /veh IRGQ (11745062_a_at) / RFU FAM174B (11720279_a_at) / Fold change /veh FAM174B (11720279_a_at) / RFU TMPRSS4 (11748680_a_at) / Fold change /veh TMPRSS4 (11748680_a_at) / RFU FAM212B (11763350_a_at) / Fold change /veh FAM212B (11763350_a_at) / RFU PLEKHG5 (11743358_a_at) / Fold change /veh PLEKHG5 (11743358_a_at) / RFU ZSCAN30 (11745921_a_at) / Fold change /veh ZSCAN30 (11745921_a_at) / RFU CMKLR1 (11741424_a_at) / Fold change /veh CMKLR1 (11741424_a_at) / RFU LOC101060620 /// MAPK8IP1 (11723275_at) / Fold change /veh LOC101060620 /// MAPK8IP1 (11723275_at) / RFU SPTSSB (11747773_x_at) / Fold change /veh SPTSSB (11747773_x_at) / RFU PRSS12 (11739890_at) / Fold change /veh PRSS12 (11739890_at) / RFU BIN1 (11741810_x_at) / Fold change /veh BIN1 (11741810_x_at) / RFU WNT11 (11732464_a_at) / Fold change /veh WNT11 (11732464_a_at) / RFU C10orf10 (11716521_a_at) / Fold change /veh C10orf10 (11716521_a_at) / RFU C5orf56 (11738089_at) / Fold change /veh C5orf56 (11738089_at) / RFU CYB561 (11721691_x_at) / Fold change /veh CYB561 (11721691_x_at) / RFU ANKRD19P (11752326_a_at) / Fold change /veh ANKRD19P (11752326_a_at) / RFU OR2T12 /// OR2T33 /// OR2T8 (11738714_s_at) / Fold change /veh OR2T12 /// OR2T33 /// OR2T8 (11738714_s_at) / RFU VCAN (11748164_a_at) / Fold change /veh VCAN (11748164_a_at) / RFU JSRP1 (11732532_at) / Fold change /veh JSRP1 (11732532_at) / RFU KRTAP10-11 (11738290_x_at) / Fold change /veh KRTAP10-11 (11738290_x_at) / RFU MYO3A (11730013_a_at) / Fold change /veh MYO3A (11730013_a_at) / RFU EBF3 (11725865_a_at) / Fold change /veh EBF3 (11725865_a_at) / RFU CAMK2N1 (11719241_x_at) / Fold change /veh CAMK2N1 (11719241_x_at) / RFU C5orf56 (11738088_a_at) / Fold change /veh C5orf56 (11738088_a_at) / RFU OLFML3 (11715873_a_at) / Fold change /veh OLFML3 (11715873_a_at) / RFU LOC100653217 /// NTM (11731650_a_at) / Fold change /veh LOC100653217 /// NTM (11731650_a_at) / RFU MAPK11 (11762145_a_at) / Fold change /veh MAPK11 (11762145_a_at) / RFU FIZ1 (11724087_x_at) / Fold change /veh FIZ1 (11724087_x_at) / RFU OASL (11726364_x_at) / Fold change /veh OASL (11726364_x_at) / RFU SOX15 (11748057_x_at) / Fold change /veh SOX15 (11748057_x_at) / RFU CD79A (11719716_a_at) / Fold change /veh CD79A (11719716_a_at) / RFU HIST1H1D (11736915_at) / Fold change /veh HIST1H1D (11736915_at) / RFU CASKIN2 (11723855_a_at) / Fold change /veh CASKIN2 (11723855_a_at) / RFU LOC730098 (11760151_x_at) / Fold change /veh LOC730098 (11760151_x_at) / RFU OR4N2 (11742367_at) / Fold change /veh OR4N2 (11742367_at) / RFU PRRT2 (11749266_a_at) / Fold change /veh PRRT2 (11749266_a_at) / RFU SNX32 (11753110_a_at) / Fold change /veh SNX32 (11753110_a_at) / RFU CDHR5 (11726645_a_at) / Fold change /veh CDHR5 (11726645_a_at) / RFU RCAN1 (11760418_a_at) / Fold change /veh RCAN1 (11760418_a_at) / RFU FAM167A (11723789_a_at) / Fold change /veh FAM167A (11723789_a_at) / RFU FAM26E (11764081_at) / Fold change /veh FAM26E (11764081_at) / RFU ISYNA1 (11749810_s_at) / Fold change /veh ISYNA1 (11749810_s_at) / RFU ACY1 (11761880_at) / Fold change /veh ACY1 (11761880_at) / RFU 11764098_at / Fold change /veh 11764098_at / RFU SAMD14 (11745864_x_at) / Fold change /veh SAMD14 (11745864_x_at) / RFU NPB (11741838_a_at) / Fold change /veh NPB (11741838_a_at) / RFU TMPRSS6 (11731388_a_at) / Fold change /veh TMPRSS6 (11731388_a_at) / RFU KRTAP10-2 (11738614_at) / Fold change /veh KRTAP10-2 (11738614_at) / RFU ARHGAP8 /// PRR5-ARHGAP8 (11727945_x_at) / Fold change /veh ARHGAP8 /// PRR5-ARHGAP8 (11727945_x_at) / RFU KRTAP5-7 /// NADSYN1 (11734609_at) / Fold change /veh KRTAP5-7 /// NADSYN1 (11734609_at) / RFU RASL12 (11751679_a_at) / Fold change /veh RASL12 (11751679_a_at) / RFU CDKN2B (11736163_a_at) / Fold change /veh CDKN2B (11736163_a_at) / RFU PRF1 (11729649_at) / Fold change /veh PRF1 (11729649_at) / RFU, ZNF638 /// ZNF638-IT1 / Fold change vs veh, ZNF638 /// ZNF638-IT1 / RFU, PANK3 / Fold change vs veh, PANK3 / RFU, SH3YL1 / Fold change vs veh, SH3YL1 / RFU, ZEB2 / Fold change vs veh, ZEB2 / RFU, NRIP1 / Fold change vs veh, NRIP1 / RFU, PTTG1IP / Fold change vs veh, PTTG1IP / RFU, CAPN2 / Fold change vs veh, CAPN2 / RFU, MED14 / Fold change vs veh, MED14 / RFU, SNORA58 / Fold change vs veh, SNORA58 / RFU, C1orf63 / Fold change vs veh, C1orf63 / RFU, LRRFIP1 / Fold change vs veh, LRRFIP1 / RFU, NDUFAF7 / Fold change vs veh, NDUFAF7 / RFU, SLC12A2 / Fold change vs veh, SLC12A2 / RFU, IBTK / Fold change vs veh, IBTK / RFU, ESF1 / Fold change vs veh, ESF1 / Fold change vs veh, TMEM50B / RFU, TAOK1 / Fold change vs veh, TAOK1 / RFU, ACBD3 / Fold change vs veh, ACBD3 / RFU, TMA16 / Fold change vs veh, TMA16 / RFU, RWDD3 / Fold change vs veh, RWDD3 / RFU, BCAT1 / Fold change vs veh, BCAT1 / RFU, EDEM3 / Fold change vs veh, EDEM3 / RFU, TMEM33 / Fold change vs veh, TMEM33 / RFU, WDR75 / Fold change vs veh, WDR75 / RFU, AHCTF1 / Fold change vs veh, AHCTF1 / RFU, TFRC / Fold change vs veh, TFRC / RFU, ZDHHC17 / Fold change vs veh, ZDHHC17 / RFU, NOM1 / Fold change vs veh, NOM1 / RFU, ARL8B / Fold change vs veh, ARL8B / RFU, ZBTB11 / Fold change vs veh, ZBTB11 / RFU, TAMM41 / Fold change vs veh, TAMM41 / RFU, KIAA1704 /// LOC100996395 / Fold change vs veh, KIAA1704 /// LOC100996395 / RFU, ING1 / Fold change vs veh, ING1 / RFU, TRMT61B / Fold change vs veh, TRMT61B / RFU, FUBP3 / Fold change vs veh, FUBP3 / RFU, TP53 / Fold change vs veh, TP53 / RFU, TNKS2 / Fold change vs veh, TNKS2 / RFU, ZFP14 / Fold change vs veh, ZFP14 / RFU, ACTR2 / Fold change vs veh, ACTR2 / RFU, PPP3R1 / Fold change vs veh, PPP3R1 / RFU, PIK3R1 / Fold change vs veh, PIK3R1 / RFU, HNRNPA1 / Fold change vs veh, HNRNPA1 / RFU, RNF170 / Fold change vs veh, RNF170 / RFU, ZNF28 / Fold change vs veh, ZNF28 / RFU, RNGTT / Fold change vs veh, RNGTT / RFU, OGT / Fold change vs veh, OGT / RFU, BRD1 / Fold change vs veh, BRD1 / RFU, MARS / Fold change vs veh, MARS / RFU, ZNF655 / Fold change vs veh, ZNF655 / RFU, FAHD1 / Fold change vs veh, FAHD1 / RFU, BDP1 / Fold change vs veh, BDP1 / RFU, LRRCC1 / Fold change vs veh, LRRCC1 / RFU, ARID1A / Fold change vs veh, ARID1A / RFU, ZNF146 / Fold change vs veh, ZNF146 / RFU, ZNF330 / Fold change vs veh, ZNF330 / RFU, GPN3 / Fold change vs veh, GPN3 / RFU, C9orf123 / Fold change vs veh, C9orf123 / RFU, N4BP2L2 / Fold change vs veh, N4BP2L2 / RFU, ARFIP1 / Fold change vs veh, ARFIP1 / RFU, FAM179B / Fold change vs veh, FAM179B / RFU, BCL10 / Fold change vs veh, BCL10 / RFU, UHRF1BP1L / Fold change vs veh, UHRF1BP1L / RFU, BET1 / Fold change vs veh, BET1 / RFU, CNOT2 / Fold change vs veh, CNOT2 / RFU, ZNF268 / Fold change vs veh, ZNF268 / Fold change vs veh, ZNF507 / RFU, DGCR2 / Fold change vs veh, DGCR2 / RFU, WDSUB1 / Fold change vs veh, WDSUB1 / Fold change vs veh, HSP90B1 /// MIR3652 / RFU, ADSS / Fold change vs veh, ADSS / RFU, GK / Fold change vs veh, GK / RFU, ZNF148 / Fold change vs veh, ZNF148 / RFU, TAF9 / Fold change vs veh, TAF9 / RFU, SLC1A5 / Fold change vs veh, SLC1A5 / RFU, SLMO2 / Fold change vs veh, SLMO2 / RFU, ABCC4 / Fold change vs veh, ABCC4 / RFU, LOC101060439 /// RAP1B / Fold change vs veh, LOC101060439 /// RAP1B / RFU, RFX7 / Fold change vs veh, RFX7 / RFU, GTPBP10 / Fold change vs veh, GTPBP10 / RFU, CNEP1R1 / Fold change vs veh, CNEP1R1 / RFU, BIVM-ERCC5 /// ERCC5 / Fold change vs veh, BIVM-ERCC5 /// ERCC5 / RFU, ILF3 / Fold change vs veh, ILF3 / RFU 11762660_at / Fold change /veh 11762660_at / RFU VCAN (11757783_s_at) / Fold change /veh VCAN (11757783_s_at) / RFU DDX43 (11728927_at) / Fold change /veh DDX43 (11728927_at) / RFU KRT8 (11758188_x_at) / Fold change /veh KRT8 (11758188_x_at) / RFU NKD1 (11759106_at) / Fold change /veh NKD1 (11759106_at) / RFU SRD5A1 (11742802_a_at) / Fold change /veh SRD5A1 (11742802_a_at) / RFU TPSAB1 /// TPSB2 (11721975_s_at) / Fold change /veh TPSAB1 /// TPSB2 (11721975_s_at) / RFU GSTM3 (11746129_a_at) / Fold change /veh GSTM3 (11746129_a_at) / RFU IL23R (11737362_x_at) / Fold change /veh IL23R (11737362_x_at) / RFU TMEM51 (11727254_a_at) / Fold change /veh TMEM51 (11727254_a_at) / RFU PIWIL2 (11732686_x_at) / Fold change /veh PIWIL2 (11732686_x_at) / RFU ORM1 (11744905_x_at) / Fold change /veh ORM1 (11744905_x_at) / RFU CCDC152 (11743942_at) / Fold change /veh CCDC152 (11743942_at) / RFU ECM1 (11717891_a_at) / Fold change /veh ECM1 (11717891_a_at) / RFU IL23R (11748794_a_at) / Fold change /veh IL23R (11748794_a_at) / RFU TNFAIP8L3 (11732012_x_at) / Fold change /veh TNFAIP8L3 (11732012_x_at) / RFU MBOAT4 (11741988_at) / Fold change /veh MBOAT4 (11741988_at) / RFU 11764193_at / Fold change /veh 11764193_at / RFU TMEM53 (11763286_at) / Fold change /veh TMEM53 (11763286_at) / RFU MAGEB2 (11727129_at) / Fold change /veh MAGEB2 (11727129_at) / RFU TMEM200A (11744735_a_at) / Fold change /veh TMEM200A (11744735_a_at) / RFU CCDC152 (11751479_a_at) / Fold change /veh CCDC152 (11751479_a_at) / RFU FAM211A (11726209_a_at) / Fold change /veh FAM211A (11726209_a_at) / RFU RGS16 (11746705_a_at) / Fold change /veh RGS16 (11746705_a_at) / RFU VCAN (11755009_s_at) / Fold change /veh VCAN (11755009_s_at) / RFU RHOB (11743442_s_at) / Fold change /veh RHOB (11743442_s_at) / RFU RGS16 (11720943_a_at) / Fold change /veh RGS16 (11720943_a_at) / RFU RGS16 (11720944_at) / Fold change /veh RGS16 (11720944_at) / RFU, VPS4B / Fold change vs veh, VPS4B / RFU, CREB1 / Fold change vs veh, CREB1 / RFU, DNAJC13 / Fold change vs veh, DNAJC13 / RFU, GNAQ / Fold change vs veh, GNAQ / RFU, CDK5R1 / Fold change vs veh, CDK5R1 / RFU, ZRANB3 / Fold change vs veh, ZRANB3 / RFU, CUL4A / Fold change vs veh, CUL4A / RFU, CCNY / Fold change vs veh, CCNY / RFU, UFL1 / Fold change vs veh, UFL1 / RFU, COG3 / Fold change vs veh, COG3 / RFU, DIAPH2 / Fold change vs veh, DIAPH2 / RFU, SKA2 / Fold change vs veh, SKA2 / RFU, AFF3 / Fold change vs veh, AFF3 / RFU, LMF1 / Fold change vs veh, LMF1 / RFU, IPO11 / Fold change vs veh, IPO11 / RFU, DFFB / Fold change vs veh, DFFB / RFU, FOXP1 / Fold change vs veh, FOXP1 / RFU, CARD8 / Fold change vs veh, CARD8 / RFU, STRN3 / Fold change vs veh, STRN3 / RFU, ADK / Fold change vs veh, ADK / RFU, RASSF2 / Fold change vs veh, RASSF2 / RFU, WIPF1 / Fold change vs veh, WIPF1 / RFU, LARP1B / Fold change vs veh, LARP1B / RFU, RASA1 / Fold change vs veh, RASA1 / RFU, RB1 / Fold change vs veh, RB1 / RFU, PPFIA1 / Fold change vs veh, PPFIA1 / RFU, MAT2A / Fold change vs veh, MAT2A / RFU, CCT5 / Fold change vs veh, CCT5 / RFU, WDR92 / Fold change vs veh, WDR92 / RFU, CUX1 / Fold change vs veh, CUX1 / RFU, TTC7A / Fold change vs veh, TTC7A / RFU, TMEM135 / Fold change vs veh, TMEM135 / RFU, DEPTOR / Fold change vs veh, DEPTOR / RFU, CPM / Fold change vs veh, CPM / RFU, DNAJB6 / Fold change vs veh, DNAJB6 / RFU, CACNA2D3 / Fold change vs veh, CACNA2D3 / RFU, DTX4 / Fold change vs veh, DTX4 / RFU, TFCP2 / Fold change vs veh, TFCP2 / RFU, GMCL1 /// GMCL1P1 / Fold change vs veh, GMCL1 /// GMCL1P1 / RFU, AEBP2 / Fold change vs veh, AEBP2 / RFU, SNHG1 /// SNORD22 /// SNORD25 /// SNORD26 /// SNORD27 /// SNORD28 /// SNORD29 /// SNORD31 / Fold change vs veh, SNHG1 /// SNORD22 /// SNORD25 /// SNORD26 /// SNORD27 /// SNORD28 /// SNORD29 /// SNORD31 / Fold change (Aza/veh), C12orf56 (ProbeSet 11735607_a_at) / Fold change (ACY-1035/veh), C12orf56 (ProbeSet 11735607_a_at) / Fold change (Aza/veh), FGFR1OP (ProbeSet 11751329_s_at) / Fold change (ACY-1035/veh), FGFR1OP (ProbeSet 11751329_s_at) / Fold change (Aza/veh), VPS36 (ProbeSet 11739960_a_at) / Fold change (ACY-1035/veh), VPS36 (ProbeSet 11739960_a_at) / RFU SYPL1 (11715823_x_at) / Fold change /veh SYPL1 (11715823_x_at) / RFU IGFBP7 (11715501_s_at) / Fold change /veh IGFBP7 (11715501_s_at) / RFU REEP3 (11722064_at) / Fold change /veh REEP3 (11722064_at) / RFU IGLL1 (11728026_x_at) / Fold change /veh IGLL1 (11728026_x_at): dose or concentration left out as unconfirmed
Settings: MV-4-11 cells, 48 hours

## Nc1ncn([C@@H]2O[C@H](CO)[C@@H](O)[C@H]2O)c(=O)n1 [azacitidine]
  Fold change /veh 11762660_at: 1.27
